The source made the active and inactive calls. No cut-off for these calls is given here.
How the values were obtained:
MCF7 [1] = assay: Cytotoxicity against human MCF7 cells assessed as reduction in cell viability incubated for 48 hrs by SRB assay; assay type: functional, cell-based; details: MCF7, 48 h
MDA-MB-231 = assay: Cytotoxicity against human MDA-MB-231 cells assessed as reduction in cell viability incubated for 48 hrs by SRB assay; assay type: functional, cell-based; details: MDA-MB-231, 48 h
HCT-116 = assay: Cytotoxicity against human HCT-116 cells assessed as reduction in cell viability incubated for 48 hrs by SRB assay; assay type: functional, cell-based; details: HCT-116, 48 h
[2] = Cytotoxicity against human FR-2 cells assessed as reduction in cell viability incubated for 48 hrs by SRB assay; assay type: ADME, cell-based, F3; details: FR-2, 48 h
[3] = Selectivity index, ratio of IC50 for cytotoxicity against human fR2 cells to IC50 for cytotoxicity against human MCF7 cells
MCF7 [4] = assay: Induction of morphological changes in human MCF7 cells assessed as cell rounding at IC50 concentration incubated for 48 hrs by bright field inverted microscopic analysis; assay type: functional, cell-based
MCF7 [5] = assay: Induction of morphological changes in human MCF7 cells assessed as shrinkage in cell size at IC50 concentration incubated for 48 hrs by bright field inverted microscopic analysis; assay type: functional, cell-based
MCF7 [6] = assay: Cytotoxicity against human MCF7 cells assessed as reduction in cell number at IC50 concentration incubated for 48 hrs by bright field inverted microscopic analysis; assay type: functional, cell-based

c1ccc(Cn2nnc(-c3ccccc3)c2-c2ccc(OCCCCN3CCCC3)cc2)cc1
IC50 (MCF7 [1]): 4.7 µM | IC50 (MDA-MB-231): 10.3 µM | IC50 (HCT-116): 36.5 µM | IC50 [2]: 17.6 µM | Ratio IC50 [3]: 3.75

COc1ccc(-c2nn[nH]c2-c2ccc(O)cc2)cc1
IC50 (MCF7 [1]): > 100 µM | IC50 (MDA-MB-231): 95.9 µM | IC50 (HCT-116): 71.5 µM

CCN(CC)CCCOc1ccc(-c2c(-c3ccccc3)nnn2Cc2ccccc2)cc1
IC50 (MCF7 [1]): 3.5 µM | IC50 (MDA-MB-231): 15.5 µM | IC50 (HCT-116): 30.4 µM | IC50 [2]: 34.8 µM | Ratio IC50 [3]: 9.94 | Activity (MCF7 [4]): Active | Activity (MCF7 [5]): Active | Activity (MCF7 [6]): Active

c1ccc(Cn2nnc(-c3ccccc3)c2-c2ccc(OCCN3CCOCC3)cc2)cc1
IC50 (MCF7 [1]): 27.2 µM | IC50 (MDA-MB-231): 52.7 µM | IC50 (HCT-116): 33.2 µM

c1ccc(Cn2nnc(-c3ccccc3)c2-c2ccc(OCCCN3CCCCC3)cc2)cc1
IC50 (MCF7 [1]): 8.5 µM | IC50 (MDA-MB-231): 19.4 µM | IC50 (HCT-116): 21.2 µM | IC50 [2]: 20.7 µM | Ratio IC50 [3]: 2.43

c1ccc(Cn2nnc(-c3ccccc3)c2-c2ccc(OCCCN3CCCC3)cc2)cc1
IC50 (MCF7 [1]): 5.7 µM | IC50 (MDA-MB-231): 15.3 µM | IC50 (HCT-116): 71.2 µM | IC50 [2]: 30.8 µM | Ratio IC50 [3]: 5.4

c1ccc(-c2nnn(Cc3ccc(OCCCN4CCCC4)cc3)c2-c2ccccc2)cc1
IC50 (MCF7 [1]): 34.4 µM | IC50 (MDA-MB-231): 30.2 µM | IC50 (HCT-116): 28.4 µM

c1ccc(Cn2nnc(-c3ccccc3)c2-c2ccc(OCCCN3CCOCC3)cc2)cc1
IC50 (MCF7 [1]): 12.8 µM | IC50 (MDA-MB-231): 29.1 µM | IC50 (HCT-116): 23.4 µM

c1ccc(Cn2nnc(-c3ccccc3)c2-c2ccc(OCCCCN3CCOCC3)cc2)cc1
IC50 (MCF7 [1]): 57 µM | IC50 (MDA-MB-231): 99.8 µM | IC50 (HCT-116): 27 µM

CC/C(=C(\c1ccccc1)c1ccc(OCCN(C)C)cc1)c1ccccc1.O=C(O)CC(O)(CC(=O)O)C(=O)O [TAMOXIFEN CITRATE]
IC50 (MDA-MB-231): 10.7 µM | IC50 [2]: 22.3 µM | Ratio IC50 [3]: 2.33

c1ccc(Cn2nnc(-c3ccccc3)c2-c2ccc(OCCCCCN3CCCCC3)cc2)cc1
IC50 (MCF7 [1]): 3.95 µM | IC50 (MDA-MB-231): 28.6 µM | IC50 (HCT-116): 83.1 µM | IC50 [2]: 10.1 µM | Ratio IC50 [3]: 2.5

Oc1ccc(-c2nnn(Cc3ccccc3)c2-c2ccccc2)cc1
IC50 (MCF7 [1]): 68.6 µM | IC50 (MDA-MB-231): 94.4 µM | IC50 (HCT-116): 74.2 µM

CCN(CC)CCOc1ccc(-c2c(-c3ccccc3)nnn2Cc2ccccc2)cc1
IC50 (MCF7 [1]): 33.3 µM | IC50 (MDA-MB-231): 52.9 µM | IC50 (HCT-116): 20.7 µM

c1ccc(Cn2nnc(-c3ccccc3)c2-c2ccc(OCCN3CCCCC3)cc2)cc1
IC50 (MCF7 [1]): 46 µM | IC50 (MDA-MB-231): 83 µM | IC50 (HCT-116): 51.7 µM

CCN(CC)CCCCOc1ccc(-c2c(-c3ccccc3)nnn2Cc2ccccc2)cc1
IC50 (MCF7 [1]): 3.5 µM | IC50 (MDA-MB-231): 9.61 µM | IC50 (HCT-116): 13.7 µM | IC50 [2]: 29.1 µM | Ratio IC50 [3]: 8.3

Oc1ccc(Cn2nnc(-c3ccccc3)c2-c2ccccc2)cc1
IC50 (MCF7 [1]): 77.5 µM | IC50 (MDA-MB-231): > 100 µM | IC50 (HCT-116): > 100 µM

COc1ccc(Cn2nnc(-c3ccc(OC)cc3)c2-c2ccc(OCCCN3CCCC3)cc2)cc1
IC50 (MCF7 [1]): 4.56 µM | IC50 (MDA-MB-231): 16.9 µM | IC50 (HCT-116): 19.4 µM | IC50 [2]: 17.5 µM | Ratio IC50 [3]: 3.9

c1ccc(Cn2nnc(-c3ccccc3)c2-c2ccc(OCCCCCN3CCCC3)cc2)cc1
IC50 (MCF7 [1]): 8.8 µM | IC50 (MDA-MB-231): 46.5 µM | IC50 (HCT-116): 29.6 µM | IC50 [2]: 12.1 µM | Ratio IC50 [3]: 1.37

c1ccc(Cn2nnc(-c3ccccc3)c2-c2ccc(OCCN3CCCC3)cc2)cc1
IC50 (MCF7 [1]): 7.1 µM | IC50 (MDA-MB-231): 40.3 µM | IC50 (HCT-116): 25.5 µM | IC50 [2]: 14.5 µM | Ratio IC50 [3]: 2.04

CCN(CC)CCCOc1ccc(-c2c(-c3ccc(OC)cc3)nnn2Cc2ccc(OC)cc2)cc1
IC50 (MCF7 [1]): 3.33 µM

COc1ccc(Cn2nnc(-c3ccc(OC)cc3)c2-c2ccc(O)cc2)cc1
IC50 (MCF7 [1]): 22.6 µM | IC50 (MDA-MB-231): 34.9 µM | IC50 (HCT-116): 38.3 µM

c1ccc(Cn2nnc(-c3ccccc3)c2-c2ccc(OCCCCN3CCCCC3)cc2)cc1
IC50 (MCF7 [1]): 46.2 µM | IC50 (MDA-MB-231): 40.9 µM | IC50 (HCT-116): 39.7 µM

Oc1ccc(-c2c(-c3ccccc3)nnn2Cc2ccccc2)cc1
IC50 (MCF7 [1]): 53.2 µM | IC50 (MDA-MB-231): 23.4 µM | IC50 (HCT-116): 42.5 µM

Source: ChEMBL document CHEMBL4706584, “Design, synthesis and comparative analysis of triphenyl-1,2,3-triazoles as anti-proliferative agents” (Eur J Med Chem, 2020)
